Data taken from PMC4891385 (Clinical Drug Investigation, 2016).

What was measured:
Assay type in all cases: in vitro ADME
OAT3 = target: T1, OAT3 (Homo sapiens, UniProt Q8TCC7); assay: [14C]-lesinurad uptake, substrate test, OAT3 oocytes
T1 sequence (Q8TCC7 1-542): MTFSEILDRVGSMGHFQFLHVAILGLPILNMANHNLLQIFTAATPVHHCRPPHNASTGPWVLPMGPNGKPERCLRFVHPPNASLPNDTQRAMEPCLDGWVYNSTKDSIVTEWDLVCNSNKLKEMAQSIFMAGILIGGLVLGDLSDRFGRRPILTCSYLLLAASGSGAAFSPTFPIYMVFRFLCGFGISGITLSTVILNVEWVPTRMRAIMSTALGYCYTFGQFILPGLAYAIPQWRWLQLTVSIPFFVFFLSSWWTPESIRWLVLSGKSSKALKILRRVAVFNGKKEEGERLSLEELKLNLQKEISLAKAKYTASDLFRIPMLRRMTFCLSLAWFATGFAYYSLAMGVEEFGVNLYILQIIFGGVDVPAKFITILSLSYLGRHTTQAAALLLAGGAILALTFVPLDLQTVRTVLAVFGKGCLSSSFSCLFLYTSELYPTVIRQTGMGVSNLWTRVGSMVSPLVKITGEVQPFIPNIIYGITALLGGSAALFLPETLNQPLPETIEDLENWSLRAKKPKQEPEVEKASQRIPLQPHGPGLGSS

OATP1B1 = target: T2, OATP1B1 (Homo sapiens, UniProt Q9Y6L6); assay: [14C]-lesinurad uptake, substrate test, hOATP1B1 MDCK-II cells
T2 sequence (Q9Y6L6 1-691): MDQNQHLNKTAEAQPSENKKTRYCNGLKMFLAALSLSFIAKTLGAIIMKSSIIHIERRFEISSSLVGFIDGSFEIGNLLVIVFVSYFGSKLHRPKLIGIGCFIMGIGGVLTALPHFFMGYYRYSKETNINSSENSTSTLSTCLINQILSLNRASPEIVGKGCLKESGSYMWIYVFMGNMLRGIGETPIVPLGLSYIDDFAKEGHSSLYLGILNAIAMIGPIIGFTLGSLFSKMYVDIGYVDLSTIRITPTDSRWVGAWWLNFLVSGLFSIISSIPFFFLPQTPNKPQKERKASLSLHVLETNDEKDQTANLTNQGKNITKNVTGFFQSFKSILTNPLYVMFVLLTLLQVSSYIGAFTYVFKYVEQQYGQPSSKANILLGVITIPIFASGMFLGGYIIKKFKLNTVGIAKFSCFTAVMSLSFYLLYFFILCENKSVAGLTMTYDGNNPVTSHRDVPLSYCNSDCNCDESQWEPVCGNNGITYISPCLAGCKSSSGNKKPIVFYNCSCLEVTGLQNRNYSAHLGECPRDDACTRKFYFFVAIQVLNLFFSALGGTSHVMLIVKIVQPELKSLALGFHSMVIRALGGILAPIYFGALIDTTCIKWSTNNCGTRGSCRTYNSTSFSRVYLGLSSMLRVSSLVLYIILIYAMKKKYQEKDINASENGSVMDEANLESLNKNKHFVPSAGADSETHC

BCRP = target: T3, BCRP (Homo sapiens, UniProt Q9UNQ0); assay: [14C]-lesinurad substrate test, BCRP in Caco-2 cells
T3 sequence (Q9UNQ0 1-655): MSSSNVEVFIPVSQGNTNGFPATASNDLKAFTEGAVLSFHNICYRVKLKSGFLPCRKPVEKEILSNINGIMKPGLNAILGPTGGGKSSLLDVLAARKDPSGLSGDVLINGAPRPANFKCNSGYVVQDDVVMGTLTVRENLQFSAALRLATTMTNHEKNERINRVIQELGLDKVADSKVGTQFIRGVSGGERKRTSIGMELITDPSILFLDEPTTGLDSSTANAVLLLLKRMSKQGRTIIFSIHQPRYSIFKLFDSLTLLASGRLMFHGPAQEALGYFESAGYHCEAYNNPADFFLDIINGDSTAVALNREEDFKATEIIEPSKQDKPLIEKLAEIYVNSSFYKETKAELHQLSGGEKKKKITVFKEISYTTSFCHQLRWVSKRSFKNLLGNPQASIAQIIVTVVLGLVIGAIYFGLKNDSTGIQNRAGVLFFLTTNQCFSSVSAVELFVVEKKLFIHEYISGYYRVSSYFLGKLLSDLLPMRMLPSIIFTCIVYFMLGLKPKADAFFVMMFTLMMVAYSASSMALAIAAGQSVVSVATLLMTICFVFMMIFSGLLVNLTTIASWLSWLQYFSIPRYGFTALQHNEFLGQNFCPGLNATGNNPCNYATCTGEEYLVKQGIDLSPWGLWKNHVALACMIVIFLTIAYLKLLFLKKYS

## O=C(O)CSc1nnc(Br)n1-c1ccc(C2CC2)c2ccccc12 [lesinurad]
OAT3
  Lesinurad as substrate: substrate
OATP1B1
  Lesinurad as substrate: weak substrate
OATP1B1; lesinurad 10 µM
  increase in lesinurad uptake in transfected versus non-transfected cells: 2.25 fold
BCRP
  Lesinurad as substrate: minor substrate
